Data on three compounds can be found in patent US5760017A, “Cyclodextrin derivatives usable in particular for solubilizing hydrophobic chemical compounds such as medicaments and their preparation process” (priority 1993, dated 1998).

In brackets after ≈: the same amount, converted by molar mass. Read-outs that look alike come from different tables or passages of the source.

Usually solubility stands for how much of the substance goes into solution per volume. Read a high solubility as much dissolved substance.

Data set [1] is described as follows: Solubilization of prednisolone in water by the cyclodextrin derivative. The class given is physicochemical. On the procedure:
10 μmole of heptakis-6-ethanolamino-6-deoxycyclomaltoheptaose (in hydrochloride form) prepared in example 1, are dissolved in 1 ml of pure water (apyrogenic water for injection) and addition takes place of 5 μmole of prednisolone in the form of a 50 mmole/l concentrated solution in acetone. The acetone is eliminated by nitrogen passage for 10 minutes and the solution is lyophilized.
The residual solid, which contains 10 μmole of the cyclodextrin derivative and 5 μmole of prednisolone, is redissolved in the minimum of water at 25° C.

Data set [2] is described as follows: Ionization potential measurements (pK) by potentiometry. The class given is physicochemical.
Data set [3] can be described thus: Solubility in water under physiological conditions. Conditions: sodium phosphate buffer, pH 7.4, aqueous buffer.
In a further data set the test system is human erythrocytes. The experiment in a line: Hemolytic properties on human erythrocytes. The class given is cell-based. Conditions: 5 mmole/l hydrochloride solution (4 ml) with 0.4 ml human erythrocytes, pH 7.4, 30 minutes, 37° C. On the procedure:
Thus, the hemolytic properties of the derivative obtained in example 1 were tested by contacting 0.4 ml of a solution of human erythrocytes and 4 ml of the 5 mmole/l hydrochloride solution, at a pH of 7.4, for 30 minutes and 37° C.

[4] abbreviates: potentiometry, single pK, read-out: pK (single).
The mark [5] stands for this setting: Solubility in water under physiological conditions, free base form, pH 7.40, 25° C.
Where [6] appears, read: Solubility in water under physiological conditions, hydrochloride form, pH 7.40, 25° C.

In the case of `OCCNC[C@H]1O[C@@H]2O[C@H]3[C@H](O)[C@@H](O)[C@@H](O[C@H]4[C@H](O)[C@@H](O)[C@@H](O[C@H]5[C@H](O)[C@@H](O)[C@@H](O[C@H]6[C@H](O)[C@@H](O)[C@@H](O[C@H]7[C@H](O)[C@@H](O)[C@@H](O[C@H]8[C@H](O)[C@@H](O)[C@@H](O[C@H]1[C@H](O)[C@H]2O)O[C@@H]8CO)O[C@@H]7CO)O[C@@H]6CO)O[C@@H]5CO)O[C@@H]4CO)O[C@@H]3CO` [Example 1, mono-6-ethanolamino-6-deoxycyclomaltoheptaose], in data set [1], the “maximum prednisolone solubility reached in water in the presence of the cyclodextrin (derivative)” value (“maximum prednisolone solubility reached” below) stood at 18 mM. In addition, the pKa in data set [2] (setting [4]) stood at 7.1. The solubility was determined as 40 mM (≈ 47.1 mg/mL) in data set [3] (setting [5]) and 95 mM (≈ 112 mg/mL) in data set [3] (setting [6]). Also, the “hemolysis (in words)” value in the data set on human erythrocytes is given as “no hemolysis was observed”.

On to `OCCNC[C@H]1O[C@@H]2O[C@H]3[C@H](O)[C@@H](O)[C@@H](O[C@H]4[C@H](O)[C@@H](O)[C@@H](O[C@H]5[C@H](O)[C@@H](O)[C@@H](O[C@H]6[C@H](O)[C@@H](O)[C@@H](O[C@H]7[C@H](O)[C@@H](O)[C@@H](O[C@H]8[C@H](O)[C@@H](O)[C@@H](O[C@H]1[C@H](O)[C@H]2O)O[C@@H]8CNCCO)O[C@@H]7CNCCO)O[C@@H]6CNCCO)O[C@@H]5CNCCO)O[C@@H]4CNCCO)O[C@@H]3CNCCO` [Example 2, heptakis-6-ethanolamino-6-deoxycyclomaltoheptaose], for which, in data set [1], the “maximum prednisolone solubility reached” value stood at 30 mM. Also, in data set [2] (setting [4]), the pKa turned out to be 7.05. For the same compound, the solubility in data set [3] (setting [5]) turned out to be 140 mM (≈ 201 mg/mL); in data set [3] (setting [6]), 350 mM (≈ 503 mg/mL).

Consider `NCCNC[C@H]1O[C@@H]2O[C@H]3[C@H](O)[C@@H](O)[C@@H](O[C@H]4[C@H](O)[C@@H](O)[C@@H](O[C@H]5[C@H](O)[C@@H](O)[C@@H](O[C@H]6[C@H](O)[C@@H](O)[C@@H](O[C@H]7[C@H](O)[C@@H](O)[C@@H](O[C@H]8[C@H](O)[C@@H](O)[C@@H](O[C@H]1[C@H](O)[C@H]2O)O[C@@H]8CO)O[C@@H]7CO)O[C@@H]6CO)O[C@@H]5CO)O[C@@H]4CO)O[C@@H]3CO` [reference compound], for which the “maximum prednisolone solubility reached” value in data set [1] (25° C., 10 μmole cyclodextrin derivative and 5 μmole prednisolone, lyophilized, redissolved in minimum of water (cyclodextrin derivative at 60 mmole/l for the per-substituted derivative)) came out at 12 mM. In addition, the pKa in data set [2] (first of two pK's, read-out: pK (first of two)) came out at 7.5; in data set [2] (second of two pK's, read-out: pK (second of two)), 9.5. The same compound yielded a solubility in data set [3] of 70 mM (≈ 82.4 mg/mL).
